Experimental data: patent US4803221A, “Anthracene derivatives” (priority 1987, dated 1989)
Counter-ions that a name gives are not always drawn.

What was measured:
[1] = test system: lymphocytic leukemia P388/0; assay: Lymphocytic Leukemia P388/0 Test; assay type: in vivo, mouse (CD2-F1); design: LD20: unit: mg/kg; details: ip days 1, 5, 9; for T/C × 100% (Excluding 30 Day Survivors): median survival time treated/control, at the optimal dose of the compound (Table I), active if ≥120%; for LD20: doses on a mg/kg basis
Text: (§1) Methods for evaluating the antitumor activity of these compounds are essentially those used in the Tumor Panel by the Developmental Therapeutics Program, Division of Cancer Treatment, National Cancer Institute, A. Goldin, et al., Methods in Cancer Research, Vol. XVI, p.165, Academic Press (1979). Some modifications, in dose level and schedule have been made to increase the testing efficiency.
(§2) CD2-F1 mice, of the same sex, weighing 20±3 g are used for this test. Control and test animals are injected intraperitoneally with a suspension of ~10^6 viable P388/0 tumor cells on day 0. In each test, several dose levels which bracket the LD20 of the compound are evaluated; each dose level group contains six animals. The test compounds are prepared either in physiologic saline containing 0.05% Tween 80 or distilled water containing 5% dextrose and are administered intraperitoneally on days 1, 5, and 9 relative to tumor implant. Doses are on a mg/kg basis according to individual animals' body weights. The day of death for each animal is recorded, the median identified for each group and the ratios of median survival time for treated (T)/control (C) Groups are calculated. The criterion for activity is T/C×100≥120%.

[2] = Lymphocytic Leukemia P388/0 Test; assay type: in vivo, mouse (CD2-F1); design: LD20: unit: mg/kg; details: mouse, in vivo; ip days 1, 5, 9; doses on a mg/kg basis; read-out: highest nontoxic dose where the LD20 was not determined (values in parentheses in LD20 column)
Text: as §1, §2

Herpes simplex 1/vero = Herpes simplex 1/vero plaque inhibition screen; assay type: cell-based; details: for Zone of Inhibition: plaque inhibition screen
Text: The column headings labeled Score, Toxicity, and Zone of Inhibition refer to the plaque inhibition screen while the IC50 heading to the plaque reduction screen.

Compound | T/C × 100% (Excluding 30 Day Survivors) [1] | MTD [2] [mg/kg] | Toxicity (Herpes simplex 1/vero) | LD20 [1] | Zone of Inhibition (Herpes simplex 1/vero)
CC(CO)(CO)NCc1c2ccccc2c(Cl)c2c(Cl)cccc12.Cl [Example 5C, 2-(((4,10-dichloro-9-anthracenyl)methyl)amino)-2-methyl-1,3-propanediol hydrochloride] | +204% | 300 |  |  | 
2-(((2-Ethyl-9-anthracenyl)methyl)amino)-2-methyl-1,3-propanediol and 2-(((3-ethyl-9-anthracenyl)methyl)amino)-2-methyl-1,3-propanediol hydrochloride.1/4H2 O [Example 31C] |  |  | Y |  | 
CC(CO)(CCO)NCc1c2ccccc2cc2ccccc12.CS(=O)(=O)O (stereo not shown) [Example 36G, 2-((9-anthracenylmethyl)amino)-2-methyl-1,4-butanediol methanesulfonate] | +125% |  |  | 120 | 
CC(CO)(CO)NCc1c2ccccc2c(-n2ccnc2)c2ccccc12 [Example 29B, 2-(((10-(1H-Imidazol-1-yl)-9-anthracenyl)methyl)amino)-2-methyl-1,3-propanediol hydrochloride 11/10 H2 O] | +235% |  |  | 100 | 32
CC(CO)(CO)NCc1c2ccccc2c(Cl)c2ccc(Cl)cc12.Cl [Example 22C, 2-(((2,10-dichloro-9-anthracenyl)methyl)amino)-2-methyl-1,3-propanediol hydrochloride] | +200% | 400 |  |  | 
CCCCc1c2ccccc2c(CNC(C)(CO)CO)c2ccccc12.Cl [Example 45B, 2-(((10-Butyl-9-anthracenyl)methyl)amino)-2-methyl-1,3-propanediol hydrochloride] | +170% |  |  | 212 | 
CC(CO)(CO)NCc1c2ccccc2c(S(C)(=O)=O)c2ccccc12.Cl [Example 26B, 2-Methyl-2-(((10-methylsulfonyl-9-anthracenyl)methyl)amino)-1,3-propanediol hydrochloride] | +228% | 300 |  |  | 
CC(CO)(CO)NCc1c2ccccc2cc2ccc(Cl)cc12.Cl [Example 17C, 2-(((2-Chloro-9-anthracenyl)methyl)amino)-2-methyl-1,3-propanediol hydrochloride] | +170% |  |  | 150 | 
CC(CO)(CO)NCc1c2ccccc2c(CCCl)c2ccccc12.Cl [Example 4B, 2-(((10-(2-chloroethyl)-9-anthracenyl)methyl)amino)-2-methyl-1,3-propanediol hydrochloride] | +225% | 300 |  |  | 
COCCOc1c2ccccc2c(CNC(C)(CO)CO)c2ccccc12 [Example 27B, 2-(((10-(2-Methoxyethoxy)-9-anthracenyl)methyl)amino)-2-methyl-1,3-propanediol hydrochloride 1/4H2 O] | +260% |  |  | 180 | 
CCOc1c2ccccc2c(CNC(C)(CO)CO)c2ccccc12.Cl [Example 24B, 2-(((10-Ethoxy-9-anthracenyl)methyl)amino)-2-methyl-1,3-propanediol hydrochloride] | +218% |  |  | 96 | 
CC(CO)(CO)NCc1c2ccccc2c(SCCO)c2ccccc12.Cl [Example 20B, 2-(((10-(2-hydroxyethylthio)-9-anthracenyl)methyl)amino)-2-methyl-1,3-propanediol hydrochloride] | +145% |  |  | 440 | 
CCOCC(CO)(CO)NCc1c2ccccc2cc2ccccc12.Cl [Example 32C, 2-((9-Anthracenylmethyl)amino)-2-ethoxymethyl-1,3-propanediol hydrochloride] | +130% |  |  | 625 | 23.2
Cl.OCC(CO)(CO)NCc1c2ccccc2c(Cl)c2ccccc12 [Example 21, 2-(((10-Chloro-9-anthracenyl)methyl)amino)-2-hydroxymethyl-1,3-propanediol hydrochloride] | +140% |  |  | 440 | 
CCCCOc1c2ccccc2c(CNC(C)(CO)CO)c2ccccc12.Cl [Example 44F, 2-(((10-Butoxy-9-anthracenyl)methyl)amino)-2-methyl-1,3-propanediol hydrochloride] | +120% |  |  | 120 | 
CC(CO)(CO)NCc1c2ccccc2c(C#N)c2ccccc12.Cl [Example 14B, 10-((1,1-Bis(hydroxymethyl)ethylamino)methyl)-9-anthracenecarbonitrile hydrochloride] | +190% |  |  | 387 | 

Compound | T/C × 100% (Excluding 30 Day Survivors) [1] | MTD [2] [mg/kg] | Toxicity (Herpes simplex 1/vero) | LD20 [1] | Zone of Inhibition (Herpes simplex 1/vero)
Cc1cc2c(Cl)c3ccccc3c(CNC(C)(CO)CO)c2cc1C.Cl [Example 40B, 2-(((10-Chloro-2,3-dimethyl-9-anthracenyl)methyl)amino)-2-methyl-1,3-propanediol hydrochloride] | +205% | 300 |  |  | 
CC(CO)(CO)NCc1c2ccccc2c(CO)c2ccccc12 [Example 6, 2-(((10-Hydroxymethyl-9-anthracenyl)methyl)amino)-2-methyl-1,3-propanediol hydrochloride 1/4H2 O] | +170% |  |  | 180 | 
COCC(C)(CO)NCc1c2ccccc2cc2ccccc12.Cl (stereo not shown) [Example 33D, 2-((9-Anthracenylmethyl)amino)-3-methoxy-2-methyl-1-propanol hydrochloride] |  |  |  |  | 35
CC(C)C(CO)(CO)NCc1c2ccccc2cc2ccccc12 [Example 35C, 2-((9-Anthracenylmethyl)amino)-2-isopropyl-1,3-propanediol methanesulfonate] | +150% |  |  | 450 | 
CC(CO)(CO)NCc1cccc2c(Cl)c3ccccc3cc12 [Example 37E, 2-(((10-Chloro-1-anthracenyl)methyl)amino)-2-methyl-1,3-propanediol methanesulfonate.9/20 H2 O] | +145% |  |  | 140 | 
CC(CO)(CO)NCc1cccc2cc3ccccc3cc12 [Example 15E, 2-((1-Anthracenylmethyl)amino)-2-methyl-1,3-propanediol hydrochloride] | +204% |  |  | 7 | 
CC(CO)(CO)NCc1c2ccccc2c(Cl)c2cc(Cl)ccc12.Cl [Example 23, 2-(((3,10-dichloro-9-anthracenyl)methyl)amino)-2-methyl-1,3-propanediol hydrochloride] | +210% | 300 |  |  | 
CC(CO)(CO)NCc1c2ccccc2c(Cl)c2ccc(C(C)(C)C)cc12.Cl [Example 41C, 2-(((2-tert-butyl-10-chloro-9-anthracenyl)methyl)amino)-2-methyl-1,3-propanediol hydrochloride.1/4H2 O] | +125% |  |  |  | 
CC(CO)(CO)NCc1c2ccccc2cc2cc(Cl)ccc12 [Example 18, 2-(((3-Chloro-9-anthracenyl)methyl)amino-2-methyl-1,3-propanediol hydrochloride] | +181% | 675 |  |  | 
CCSc1c2ccccc2c(CNC(C)(CO)CO)c2ccccc12.Cl [Example 19B, 2-(((10-ethylthio-9-anthracenyl)methyl)amino)-2-methyl-1,3-propanediol hydrochloride] | +145% |  |  | 625 | 
C[C@H](O)[C@@](C)(CO)NCc1c2ccccc2cc2ccccc12 (relative stereo) [Example 30G, (+-)(2R*,3S*)-2-((9-Anthracenylmethyl)amino)-2-methyl-1,3-butanediol hydrochloride 1/4H2 O] | +136% |  |  | 180 | 
CC(CO)(CO)NCc1c2ccccc2c(Br)c2ccccc12.Cl [Example 8B, 2-(((10-Bromo-9-anthracenyl)methyl)amino)-2-methyl-1,3-propanediol hydrochloride] | +200% | 450 |  |  | 
CC(CO)(CO)NCc1c2ccccc2c(N2CCOCC2)c2ccccc12 [Example 28B, 2-Methyl-2-((((10-N-morpholino)-9-anthracenyl)methyl)amino)-1,3-propanediol methanesulfonate.3/4H2 O] | +235% |  |  | 225 | 
C[S+]([O-])c1c2ccccc2c(CNC(C)(CO)CO)c2ccccc12.Cl (stereo not shown) [Example 12B, 2-Methyl-2-(((10-methylsulfinyl-9-anthracenyl)methyl)amino)-1,3-propanediol hydrochloride] | +220% |  |  | 55 | 
CC(CO)(CO)NCc1cccc2c(Br)c3ccccc3cc12.Cl [Example 16C, 2-(((10-Bromo-1-anthracenyl)methyl)amino)-2-methyl-1,3-propanediol hydrochloride] | +225% | 300 |  |  | 
